{
  "source": "patent US20260207530A1",
  "about": "“USE FOR AMELIORATION OF INTESTINAL DISEASES USING ALLULOSE” (SAMYANG CORPORATION, priority 2022, published 2026)",
  "format_in_all_cases": "cell-based, human",
  "key": {"[1]": {"system": "Prostaglandin E2 and COX-2", "experiment": "Prostaglandin E2 (ELISA) and COX-2 (RT-PCR) in Caco-2 cells with LPS-induced inflammation", "settings": "allulose 5, 10, 20 mM 6 hours, then LPS 1 μg/ml 12 hours", "method": "Caco-2 cells were cultured in 24-well plates at a density of 2×10^5 cells/well. The medium was replaced every two days, and allulose was simultaneously treated at concentrations of 5 mM, 10 mM, and 20 mM, and cultured for 6 hours after treatment and reacted for 12 hours after LPS (1 μg/ml) treatment. The supernatant was used for ELISA analysis, and RNA was extracted from the cells using Trizol, and cDNA was synthesized using a cDNA synthesis kit. Then, the expression level of the genes was assessed by qRT-PCR using primers designed for each gene. The PCR conditions used were denaturation at 95° C. for 15 seconds, annealing at 62° C. for 30 seconds, and an elongation process at 72° C. for 1 minute."}, "polarized Caco-2 cells": {"system": "polarized Caco-2 cells", "experiment": "Transepithelial electrical resistance (TEER) in polarized Caco-2 cells treated with IFN-γ/TNF-α", "settings": "polarized Caco-2, IFN-γ 10 ng/ml 24 hours, allulose 1 hour, TNF-α 10 ng/ml 6 hours; vs TEER decreased by IFN-γ/TNF-α", "method": "Transepithelial electrical resistance (TEER) was measured as an indicator of the adhesive strength between intestinal epithelial cells using allulose as an active ingredient, and the electrical resistance values of the upper and lower layers of intestinal cells for allulose materials were examined. Specifically, Caco-2 cells were seeded in the upper layer of a Transwell insert at a concentration of 5×10^4 cells/well, and 600 μl of medium without cells was added to the lower layer and cultured. The medium was replaced every 2 days, and cultured for 3 weeks to form polarization. After polarization formation, the upper layer with cells was pre-treated with IFN-γ (10 ng/ml) for 24 hours, allulose was treated at various concentrations for 1 hour, and TNF-α (10 ng/ml) was treated for 6 hours. After the reaction was completed, the electrical resistance value TEER was measured using a Millicell ERS-2 Voltohmmeter."}, "[2]": {"system": "TLR4/NF-κB signaling and TLR4/MAPK signaling", "experiment": "Expression of TLR4/NF-κB and TLR4/MAPK signaling factors in HT-29 cells with LPS-induced inflammation (RT-PCR, Western blot)", "settings": "HT-29, allulose 5, 10, 20 mM, LPS 1 μg/ml", "method": "HT-29 cells were treated simultaneously with LPS (1 μg/ml) and allulose, and reacted for 8 hours. Specifically, HT-29 cells were seeded at a concentration of 2×10^5 cells/well in 24-well plates and cultured in an incubator at 37° C. and % CO2 for 6-7 days. Allulose dissolved in RPMI 1640 medium, which is a HT-29 culture medium, was treated simultaneously at concentrations of 5, 10, and 20 mM, and after 8 hours, LPS (1 μg/ml) was treated to induce inflammation for 24 hours.\nThe gene and protein expression levels of Factors involved in TLR4/NF-κB signaling and TLR4/MAPK signaling were confirmed using RT-PCR and Western blot. After extracting RNA from cells using Trizol, cDNA was synthesized using a cDNA synthesis kit, and the gene expression levels were measured by qRT-PCR using primers designed for each gene. The PCR conditions used were denaturation at 95° C. for 15 seconds, annealing at 62° C. for 30 seconds, and elongation at 72° C. for 1 minute. For protein expression analysis, proteins were extracted from cultured cells using RIPA lysis buffer. The extracted proteins were pretreated by reacting at 95° C. for 5 minutes, and then separated by electrophoresis in SDS-PAGE. After transferring the protein to the PVDF membrane, it was blocked in 5% (w/v) BSA solution for 1 hour, and the primary antibody for each factor was diluted 1:1000 with 5% (w/v) BSA solution and reacted at 4° C. for 1 day. The membrane reacted with the primary antibody was reacted with the secondary antibody in tris-buffered saline solution containing 0.1% (v/v) Tween 20 for 1 hour at room temperature. The bands were detected using the LAS 4000 system, and the expression density was calculated using image detection software (image J software) to calculate the expression amount."}, "TLR4/NF-κB signaling": {"system": "TLR4/NF-κB signaling", "experiment": "Expression of TLR4/NF-κB signaling factors in Caco-2 cells with LPS-induced inflammation (RT-PCR, Western blot)", "settings": "Caco-2, allulose 5, 10, 20 mM, LPS 1 μg/ml 24 hours", "method": "The anti-inflammatory effect of allulose was confirmed in Caco-2 cells with inflammation induced with LPS (Lipopolysaccharide). The gene and protein expression levels of factors (p50, p65, TLR4, MyD88, IKKα, IKKβ, IKβα, IRAK4, TRAF6) related to TLR4/NF-κB signaling, which is a signaling that mediates the inflammatory response, were confirmed through RT-PCR and Western blot.\nSpecifically, Caco-2 cells were cultured and differentiated at a density of 2×10^5 cells/well in 24-well plates and simultaneously treated with allulose dissolved in MEM medium as culture medium of Caco-2 cells, at concentrations of 5, 10, and 20 mM. After 6 hours, LPS (1 μg/ml) was treated to induce inflammation for 24 hours. The culture was performed in an incubator at 5% CO2 and 37° C.\nAs a negative control, Caco-2 cells not treated with LPS were used. As a positive control, the differentiated Caco-2 cells which were treated with LPS to induce inflammation but not treated with allulose were used.\nAfter extracting RNA from the cells using Trizol, cDNA was synthesized using a cDNA synthesis kit, and the expression level of the genes was confirmed by qRT-PCR using primers designed for each gene. The PCR conditions used were denaturation at 95° C. for 15 seconds, annealing at 62° C. for 30 seconds, and an elongation process at 72° C. for 1 minute. For protein expression analysis, proteins were extracted from the cultured cells using RIPA lysis buffer. The extracted proteins were pretreated by reaction at 95° C. for 5 minutes, and then separated by electrophoresis on SDS-PAGE. After the proteins were transferred to a PVDF membrane, they were blocked in a 5% (w/v) BSA solution for 1 hour, and the primary antibodies for each factor were diluted 1:1000 in a 5% (w/v) BSA solution and reacted at 4° C. for one day. […] The bands were detected using a LAS 4000 system, and the expression density was calculated using image detection software (Image J software) to calculate the expression amount."}, "ZO-1 and Occludin": {"system": "ZO-1 and Occludin", "experiment": "Expression of tight junction factors ZO-1 and Occludin in Caco-2 cells with LPS-induced inflammation (RT-PCR, Western blot)", "settings": "Caco-2, allulose 5, 10, 20 mM 6 hours, then LPS 1 μg/ml 12 hours; vs level decreased by inflammation", "method": "Caco-2 cells were cultured in 24-well plates at a density of 2×10^5 cells/well. The medium was replaced every other day, and the cells were cultured for 6 hours after treatment with 5, 10, and 20 mM allulose, and reacted for 12 hours after treatment with LPS (1 μg/ml). After extracting RNA from the cells using Trizol, cDNA was synthesized using a cDNA synthesis kit, and the gene expression level was confirmed by qRT-PCR using primers designed for each gene. The PCR conditions used were denaturation at 95° C. for 15 seconds, annealing at 62° C. for 30 seconds, and elongation at 72° C. for 1 minute. For protein expression analysis, proteins were extracted from the cultured cells using RIPA lysis buffer. The extracted proteins were pretreated by reacting at 95° C. for 5 minutes, and then separated by electrophoresis on SDS-PAGE. After transferring the proteins to the PVDF membrane, they were blocked in a 5% (w/v) BSA solution for 1 hour, and the primary antibodies for each factor were diluted 1:1000 in a 5% (w/v) BSA solution and reacted at 4° C. for 1 day. […] The bands were detected using a LAS 4000 system, and the expression density was calculated using image detection software (image J software) to calculate the expression amount."}, "Caco-2 cells": {"system": "Caco-2 cells", "experiment": "ROS accumulation with DCFH-DA fluorescent probe in Caco-2 cells with LPS-induced inflammation", "settings": "Caco-2, LPS 1 μg/ml and allulose 5, 10, 20 mM 12 h", "method": "Caco- 2 cells were seeded at 5×10^4 cells/well in 96-well plates and cultured. After simultaneous treatment with LPS (1 μg/ml) and allulose at concentrations of 5 mM, 10 mM, and 20 mM, the cells were cultured for 12 h under conditions of 5% CO2 and 37° C. After removing the culture supernatant, DCF-DA was added to the medium at a concentration of 20 μM and cultured in an incubator for 30 min. After culture, the cells were washed with PBS and the amount of ROS production was measured using fluorescence absorbance at excitation of 488 nm and emission of 535 nm."}, "[3]": {"system": "mucin genes (MUC2, MUC5AC, MUC5B)", "experiment": "Mucin gene expression in HT-29 cells with LPS-induced inflammation (RT-PCR)", "settings": "HT-29, RT-PCR, allulose 5, 10, 20 mM, LPS 1 μg/ml 24 hours", "method": "The effect of allulose on expression level of mucins was confirmed in HT-29 cells with LPS-induced inflammation. Specifically, HT-29 cells were seeded at a concentration of 2×10^5 cells/well in 24-well plates and cultured in an incubator at 37° C. and % CO2 for 6-7 days. Allulose dissolved in RPMI 1640 medium of a HT-29 culture medium, was simultaneously treated at concentrations of 5, 10, and 20 mM, and after 8 hours, LPS (1 μg/ml) was treated to induce inflammation for 24 hours. Afterwards, the cells were washed with PBS, RNA was extracted from the cells using Trizol, and cDNA was synthesized using a cDNA synthesis kit. Then, the expression level of the gene was assessed by qRT-PCR using primers produced for mucin genes (MUC2, MUC5AC, MUC5B) that protected the intestinal mucosa. The PCR conditions used were denaturation at 95° C. for 15 seconds, annealing at 62° C. for 30 seconds, and elongation at 72° C. for 1 minute."}},
  "data": [
    {"smiles": "O=C(CO)C(O)C(O)C(O)CO", "note": "(centres unmarked) [allulose]", "values": [
      {"measurement": "concentration of Prostaglandin E2", "setting": "[1]; Caco-2, ELISA of supernatant", "result": "decreased"},
      {"measurement": "expression level of COX-2", "setting": "[1]; Caco-2, RT-PCR", "result": "decreased"},
      {"measurement": "electrical resistance value (TEER)", "setting": "polarized Caco-2 cells", "result": "increased"},
      {"measurement": "MAPK signal (p38, p-p38, JNK, p-JNK, c-Jun, p-c-Jun, c-Fos, p-c-Fos)", "setting": "[2]", "result": "decreased"},
      {"measurement": "MyD88, IRAK4, TRAF6 expression", "setting": "[2]", "result": "decreased"},
      {"measurement": "NF-κB signal (p50, p65, p-p65, Ikkα, Ikkβ, p-Ikkαβ, Ikβα, p-Ikβα)", "setting": "[2]", "result": "decreased"},
      {"measurement": "expression level of COX-2", "setting": "[2]", "result": "decreased"},
      {"measurement": "expression level of TLR4", "setting": "[2]", "result": "decreased"},
      {"measurement": "expression amount of NF-κB p65/p50", "setting": "TLR4/NF-κB signaling", "result": "decreased"},
      {"measurement": "expression amount of TLR4 activated by LPS", "setting": "TLR4/NF-κB signaling", "result": "decreased"},
      {"measurement": "expression level of factors related to TLR4/NF-κB signaling (mRNA and protein)", "setting": "TLR4/NF-κB signaling; vs LPS control without allulose", "result": "decreased"},
      {"measurement": "mRNA and protein expression levels of Occludin", "setting": "ZO-1 and Occludin", "result": "increased"},
      {"measurement": "mRNA and protein expression levels of ZO-1", "setting": "ZO-1 and Occludin", "result": "increased"},
      {"measurement": "accumulated ROS", "setting": "Caco-2 cells", "result": "reduced"},
      {"measurement": "expression level of MUC2", "setting": "[3]", "result": "decreased"},
      {"measurement": "expression level of MUC5AC", "setting": "[3]", "result": "decreased"},
      {"measurement": "expression level of MUC5B", "setting": "[3]", "result": "decreased"}
    ]}
  ]
}
